From ChEMBL document CHEMBL1201862, “PubChem BioAssay data set” (2004)
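Cultured in 96-well plates, cells were exposed to test compound for 48 hours across five concentrations. At the GI50, growth is halved.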 Active and inactive are the calls of the source. No stated cut-off is given here; in the data, active = GI50 up to about 1.1 µM and inactive = higher.

How the values were obtained:
Test in all cases: NCI anticancer screen, dose series, 48 h
K562 = system: K562
RXF 393 = system: RXF 393
OVCAR-3 = system: OVCAR-3
786-0 = system: 786-0
NCI-H23 = system: NCI-H23
SN12C = system: SN12C
SK-MEL-28 = system: SK-MEL-28
SW-620 = system: SW-620
IGROV-1 = system: IGROV-1
OVCAR-8 = system: OVCAR-8
SF-295 = system: SF-295
OVCAR-5 = system: OVCAR-5
A498 = system: A498
SK-OV-3 = system: SK-OV-3
RPMI-8226 = system: RPMI-8226
Malme-3M = system: Malme-3M
NCI-H226 = system: NCI-H226

Structure (SMILES)	GI50 (K562)	GI50 (RXF 393)	GI50 (OVCAR-3)	GI50 (786-0)	GI50 (NCI-H23)	GI50 (SN12C)	GI50 (SK-MEL-28)	GI50 (SW-620)	GI50 (IGROV-1)	GI50 (OVCAR-8)	GI50 (SF-295)	GI50 (OVCAR-5)	GI50 (A498)	GI50 (SK-OV-3)	GI50 (RPMI-8226)	GI50 (Malme-3M)	GI50 (NCI-H226)
O=c1[nH]c(=O)n(C2OC(CO)C(N(O)Cc3ccc(F)cc3)C2O)cc1Br (stereo not drawn)	> 100 µM (inactive)	> 100 µM (inactive)	> 100 µM (inactive)	> 100 µM (inactive)	> 100 µM (inactive)	> 100 µM (inactive)	> 100 µM (inactive)	> 100 µM (inactive)	> 100 µM (inactive)	> 100 µM (inactive)	> 100 µM (inactive)	> 100 µM (inactive)	> 100 µM (inactive)	> 100 µM (inactive)	> 100 µM (inactive)		
COC(=O)CC(=O)OC1C[C@@H]2CCC3C(C)(C)CCC[C@]3(C)C23CC[C@@]1(C)C3 (stereo partly drawn)	> 100 µM (inactive)	18.9 µM (inactive)	16.9 µM (inactive)	16.3 µM (inactive)	18.4 µM (inactive)	17.5 µM (inactive)	19.8 µM (inactive)	18.2 µM (inactive)	16.9 µM (inactive)	19.5 µM (inactive)	19.2 µM (inactive)	16.1 µM (inactive)		24.5 µM (inactive)	45.9 µM (inactive)	17.9 µM (inactive)	28.6 µM (inactive)
O=C1c2ccccc2C(=O)N1C/C=N/NS(=O)(=O)c1ccc(Br)cc1	> 100 µM (inactive)		> 100 µM (inactive)	> 100 µM (inactive)	> 100 µM (inactive)	> 100 µM (inactive)	80 µM (inactive)	> 100 µM (inactive)	> 100 µM (inactive)	> 100 µM (inactive)	> 100 µM (inactive)	> 100 µM (inactive)	> 100 µM (inactive)	> 100 µM (inactive)	> 100 µM (inactive)	> 100 µM (inactive)	> 100 µM (inactive)
Fc1cccc(C2SCc3nc4ccccc4n32)c1 (stereo not drawn)	28.5 µM (inactive)	> 10 µM (inactive)	36.2 µM (inactive)	> 100 µM (inactive)	19.6 µM (inactive)	50.5 µM (inactive)	> 10 µM (inactive)	54.8 µM (inactive)	39.6 µM (inactive)	66.5 µM (inactive)	48.3 µM (inactive)	17.3 µM (inactive)		50.8 µM (inactive)	23.5 µM (inactive)	36.4 µM (inactive)	41.1 µM (inactive)
Cc1ccc2sc3cc(=O)cc(C)c-3nc2c1	18.6 µM (inactive)		57.3 µM (inactive)	55.1 µM (inactive)	45.3 µM (inactive)	60.4 µM (inactive)	> 100 µM (inactive)	> 100 µM (inactive)	> 100 µM (inactive)	37.9 µM (inactive)	33.1 µM (inactive)	> 100 µM (inactive)		> 100 µM (inactive)			> 100 µM (inactive)
Cc1cc(Cl)ccc1C1OC(=O)c2c1ccc1ccccc21 (stereo not drawn)	> 100 µM (inactive)		> 100 µM (inactive)	97.5 µM (inactive)	> 100 µM (inactive)	> 100 µM (inactive)	> 100 µM (inactive)	> 100 µM (inactive)	> 100 µM (inactive)	> 100 µM (inactive)	> 100 µM (inactive)	> 100 µM (inactive)	> 100 µM (inactive)	> 100 µM (inactive)	> 100 µM (inactive)	> 100 µM (inactive)	> 100 µM (inactive)
Cc1cccc(-c2nc3c(C(=O)NCCN(C)C)cccc3[nH]2)c1	0.863 µM (active)	1.19 µM (inactive)	1.89 µM (inactive)	1.59 µM (inactive)	1.06 µM (active)	0.65 µM (active)	2.04 µM (inactive)	0.352 µM (active)	0.83 µM (active)	0.708 µM (active)	1.1 µM (active)	1.88 µM (inactive)	1.54 µM (inactive)	1.49 µM (inactive)	3.12 µM (inactive)		1.85 µM (inactive)
c1ccc(P(=C2c3ccccc3-c3ccccc32)(c2ccccc2)c2ccccc2)cc1	2.1 µM (inactive)	13 µM (inactive)	2.53 µM (inactive)	4.68 µM (inactive)	2.45 µM (inactive)	3.15 µM (inactive)	6.5 µM (inactive)	3.37 µM (inactive)	6.7 µM (inactive)	3.04 µM (inactive)	2.94 µM (inactive)	4.32 µM (inactive)		20.7 µM (inactive)		3.08 µM (inactive)	
CN1NC(c2ccccc2)=C(C#N)C(=O)CC1c1ccccc1Cl (stereo not drawn)		> 100 µM (inactive)		> 100 µM (inactive)	> 100 µM (inactive)	> 100 µM (inactive)	> 100 µM (inactive)	> 100 µM (inactive)			> 100 µM (inactive)	> 100 µM (inactive)		> 100 µM (inactive)	> 100 µM (inactive)	> 100 µM (inactive)	> 100 µM (inactive)
CC1=CC(=O)C(=O)C2=C1OC1(C2)C(C)CCC2C3(C)CCC(O)C(C)(C)C3CCC21C (stereo not drawn)	17 µM (inactive)	15.3 µM (inactive)	18.6 µM (inactive)	17.4 µM (inactive)	15.8 µM (inactive)	> 100 µM (inactive)	20.5 µM (inactive)	22.1 µM (inactive)	17.6 µM (inactive)	19.5 µM (inactive)	15.7 µM (inactive)	18.2 µM (inactive)		29 µM (inactive)	23.6 µM (inactive)	19.8 µM (inactive)	18.2 µM (inactive)
O=[N+]([O-])c1ccc(-c2noc(-c3ccc(Cl)cc3)c2C2=NCCN2)cc1	> 100 µM (inactive)	> 100 µM (inactive)	> 100 µM (inactive)	> 100 µM (inactive)		> 100 µM (inactive)	> 100 µM (inactive)	> 100 µM (inactive)	> 100 µM (inactive)	> 100 µM (inactive)	> 100 µM (inactive)	> 100 µM (inactive)			> 100 µM (inactive)	> 100 µM (inactive)	> 100 µM (inactive)
CCOC(=O)Cn1c(=O)[nH]c(=O)c2[nH]cnc21	> 100 µM (inactive)	> 100 µM (inactive)	> 100 µM (inactive)	> 100 µM (inactive)	> 100 µM (inactive)	> 100 µM (inactive)	> 100 µM (inactive)	> 100 µM (inactive)	> 100 µM (inactive)	> 100 µM (inactive)		> 100 µM (inactive)	> 100 µM (inactive)	> 100 µM (inactive)		> 100 µM (inactive)	
COC(=O)CCC(=O)N1Cc2cc(C)ccc2N(C(=O)CCC(=O)OC)Cc2cc(C)ccc21	> 100 µM (inactive)	> 100 µM (inactive)	> 100 µM (inactive)	> 100 µM (inactive)	> 100 µM (inactive)	> 100 µM (inactive)	> 100 µM (inactive)	> 100 µM (inactive)	> 100 µM (inactive)	> 100 µM (inactive)	> 100 µM (inactive)	> 100 µM (inactive)		> 100 µM (inactive)	> 100 µM (inactive)		> 100 µM (inactive)
